Source: patent US20220375548A1, “FRAGRANCE COMPOSITION TONALITY DETERMINATION METHOD, FRAGRANCE COMPOSITION DETERMINATION METHOD AND CORRESPONDING SYSTEMS” (FIRMENICH SA, priority 2019, published 2022)

Target: T1, OR7A17 (Homo sapiens, UniProt O14581)
T1 sequence (O14581 1-309): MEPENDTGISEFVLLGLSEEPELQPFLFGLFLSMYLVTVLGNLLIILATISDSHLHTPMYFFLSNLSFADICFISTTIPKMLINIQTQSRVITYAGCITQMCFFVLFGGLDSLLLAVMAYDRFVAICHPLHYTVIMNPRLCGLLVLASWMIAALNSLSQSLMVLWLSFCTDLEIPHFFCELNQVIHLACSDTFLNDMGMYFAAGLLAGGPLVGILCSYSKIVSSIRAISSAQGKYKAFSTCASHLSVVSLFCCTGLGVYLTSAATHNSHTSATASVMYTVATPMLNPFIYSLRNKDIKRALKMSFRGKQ
Experiment: odorant receptor activation (Example 3 in U.S. 62/911,096)
Format: cell-based
Settings: associated with blonde woody tonality
Excerpt: Non-limiting examples of an olfactory tonality include earthy, coconut, celery, hay etc. (see Example 1 in U.S. 62/911,096). For example, OR11A1 agonists all share a common earthy tonality even as they elicit an overall set of distinct tonalities (see Example 2 in U.S. 62/911,096). A volatile molecule may have greater than one tonality. For example, beta ionone has violet and blonde woody tonalities arising from the activation of OR5A1 and OR7A17, respectively (see Example 3 in U.S. 62/911,096).
The first relationship may be obtained by putting into contact a sample of volatile molecules with isolated ORs and by monitoring the activity of each said OR. The result of such an experiment may be stored inside a database cross referencing volatile molecule digital identifiers, representative of real volatile molecules, and the impact of said volatile molecule on the ORs monitored during the experiment.
Indicators for monitoring the activity of olfactory receptors include, for example, a fluorescent calcium indicator dye, a calcium indicator protein (e.g. GCaMP, a genetically encoded calcium indicator), a fluorescent cAMP indicator, a cell mobilization assay, a cellular dynamic mass redistribution assay, a label-free cell based assay, a cAMP response element (CRE) mediated reporter protein, a biochemical cAMP HTRF assay, a beta-arrestin assay, or an electrophysiological recording. […]

Structure (SMILES): CC(=O)/C=C/C1=C(C)CCCC1(C)C [beta ionone]
- activation of OR7A17: activation
